# Counter-ions that a name gives are not always drawn.
# Target: T1, p38 MAP kinase (Homo sapiens, UniProt Q16539)
# T1 construct: made in house; host or cells: E. coli (co-expressed with SEK-1 and MEKK to phosphorylate p38)
# Assay: in vitro inhibition of p-38 (MAP) kinase, transfer of γ-33P from ATP to Myelin Basic Protein
# Format: biochemical
# Conditions: phosphorylated recombinant p38 MAP kinase; MBP substrate, γ-33P-ATP; 30° C.
# Procedure: This example illustrate an assay protocol for determining in vitro inhibition of p-38 (MAP) Kinase.
# The phosphorylated form of the recombinant p38 MAP kinase was expressed with SEK-1 and MEKK in E. Coli and then purified by affinity chromatography using a Nickel column.
# The phosphorylated p38 MAP kinase was diluted in kinase buffer (20 mM 3-(N-morpholino)propanesulfonic acid, pH 7.2, 25 mM β-glycerol phosphate, 5 mM ethylene glycol-bis(beta-aminoethyl ether)-N,N,N′,N′-tetraacetic acid, 1 mM sodium vanadate, 1 mM dithiothreitol, 40 mM magnesium chloride). Test compound dissolved in DMSO or only DMSO (control) was added and the samples were incubated for 10 min at 30° C. The kinase reaction was initiated by the addition of a substrate cocktail containing MBP and γ-^33P-ATP. After incubating for an additional 20 min at 30° C., the reaction was terminated by adding 0.75% phosphoric acid. The phosphorylated MBP was then separated from the residual γ-^33P-ATP using a phosphocellulose membrane (Millipore, Bedford, Mass.) and quantitated using a scintillation counter (Packard, Meriden, Conn.).
# T1 sequence (Q16539 whole entry): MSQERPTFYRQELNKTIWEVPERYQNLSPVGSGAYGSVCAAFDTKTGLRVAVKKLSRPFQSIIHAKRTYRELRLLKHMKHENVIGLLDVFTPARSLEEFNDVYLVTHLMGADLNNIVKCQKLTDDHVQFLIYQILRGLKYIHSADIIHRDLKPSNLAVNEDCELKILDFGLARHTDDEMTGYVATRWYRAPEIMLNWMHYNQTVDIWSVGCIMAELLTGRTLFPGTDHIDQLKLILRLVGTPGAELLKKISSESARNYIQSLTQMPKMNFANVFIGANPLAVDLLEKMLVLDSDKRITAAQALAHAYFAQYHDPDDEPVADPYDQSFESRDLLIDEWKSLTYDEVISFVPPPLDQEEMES
row,SMILES,IC50 [nM]
1,Cc1ccccc1-c1cc2cnc(NC3CCN(S(=O)(=O)CC(F)(F)F)CC3)nc2n(C)c1=O.Cl [Cpd 128],0.6
2,Cn1c(=O)c(-c2ccccc2Cl)cc2cnc(NC3CCN(CC#N)CC3)nc21 [compound 24],35.5
3,Cn1c(=O)c(-c2ccccc2Cl)cc2cnc(NC3CCN(C(N)=O)CC3)nc21 [compound 11],4.8
4,Cn1c(=O)c(-c2ccccc2Cl)cc2cnc(N[C@H]3CC[C@H](O)CC3)nc21 [Cpd 1],20.5
5,Cl.N#CCn1c(=O)c(-c2ccccc2Cl)cc2cnc(N[C@H]3CC[C@H](O)CC3)nc21 [Example 44],7.8
6,CCCS(=O)(=O)N1CCC(Nc2ncc3cc(-c4ccccc4C)c(=O)n(C)c3n2)CC1.Cl [Cpd 126],0.3
7,Cn1c(=O)c(-c2ccccc2Cl)cc2cnc(NC3(CO)CCCC3)nc21 [Cpd 2],41.9
8,Cn1c(=O)c(-c2ccccc2Cl)cc2cnc(N[C@H]3CC[C@H](NS(C)(=O)=O)CC3)nc21 [compound 37],30.5
9,O=c1c(-c2ccccc2Cl)cc2cnc(N[C@H]3CC[C@H](O)CC3)nc2n1Cc1ccccc1 [Example 41],5.1
10,CCn1c(=O)c(-c2ccccc2Cl)cc2cnc(NC3CCOCC3)nc21.Cl [Cpd 136],8.2
11,Cn1c(=O)c(-c2ccccc2Cl)cc2cnc(NC3CCC4(CC3)NC(=O)NC4=O)nc21 (stereo not shown) [compound 29],41.5
12,Cn1c(=O)c(-c2ccccc2Cl)cc2cnc(N[C@H]3CC[C@H](N)CC3)nc21 [Example 38],6.2

# Test system: not given
# Assay: not given
# Conditions: not given
row,SMILES,melting point [°C]
1,Cc1ccccc1-c1cc2cnc(NC3CCN(S(=O)(=O)CC(F)(F)F)CC3)nc2n(C)c1=O.Cl [Cpd 128],200 to 204
2,Cl.N#CCn1c(=O)c(-c2ccccc2Cl)cc2cnc(N[C@H]3CC[C@H](O)CC3)nc21 [Example 44],232.1 to 233.4
3,Cl.NC(=O)O[C@H]1CC[C@H](Nc2ncc3cc(-c4ccccc4Cl)c(=O)[nH]c3n2)CC1,291 to 293.5
4,Cl.Cn1c(=O)c(-c2ccccc2Cl)cc2cnc(NC3CCN(S(=O)(=O)CC(F)(F)F)CC3)nc21,215 to 219
5,"CS(=O)(=O)N[C@H]1CC[C@H](Nc2ncc3c(n2)=NC(=O)C(c2ccccc2Cl)C=3)CC1 (stereo partly drawn) (as salt: hydrochloric acid salt) [Example 16, 2-(trans-4-methanesulfonylaminocyclohexylamino)-6-(2-chlorophenyl)-pyrido[2,3-d]pyrimidin-7-one]",> 300
6,CN(C)S(=O)(=O)N[C@H]1CC[C@H](Nc2ncc3cc(-c4ccccc4Cl)c(=O)n(C)c3n2)CC1.Cl,226.5 to 229
7,CNC(=O)CN1CCC(Nc2ncc3cc(-c4ccccc4Cl)c(=O)n(C)c3n2)CC1.Cl,64 to 102.6
8,Cn1c(=O)c(-c2ccccc2Cl)cc2cnc(NC3(CO)CCCC3)nc21 (as salt: salt) [Cpd 2],213.7 to 214.6
9,Cl.Cn1c(=O)c(-c2ccccc2Cl)cc2cnc(N[C@@H]3CCOC3)nc21,171.9 to 173
10,CCCS(=O)(=O)N1CCC(Nc2ncc3cc(-c4ccccc4C)c(=O)n(C)c3n2)CC1.Cl [Cpd 126],211.7 to 212.6
11,Cl.O=c1c(-c2ccccc2Cl)cc2cnc(NC3CCOCC3)nc2n1-c1ccc(F)cc1,150 to 154
12,Cc1ccccc1-c1cc2cnc(NC3CCSCC3)nc2n(C)c1=O [Cpd 140],186.6 to 188.1
13,Cl.Cn1c(=O)c(-c2ccccc2Cl)cc2cnc(NCC3CCC(O)CC3)nc21 (stereo not shown),148 to 151.5
14,Cl.Cn1c(=O)c(-c2ccccc2Cl)cc2cnc(NC3CCOC3)nc21 (stereo not shown),193.9 to 194.5
15,CCS(=O)(=O)N1CCC(Nc2ncc3cc(-c4ccccc4OC)c(=O)n(C)c3n2)CC1.Cl,120.3 to 139.7
16,CC(C)(CO)Nc1ncc2cc(-c3ccccc3Cl)c(=O)n(N)c2n1.Cl,145 to 163
17,Cl.O=C1CCC(Nc2ncc3cc(-c4ccccc4Cl)c(=O)n(-c4ccc(F)cc4)c3n2)CC1,242.7 to 243.6
18,Cl.Cn1c(=O)c(-c2ccccc2Cl)cc2cnc(NC3CCN(CCO)CC3)nc21,265.9 to 266.6
19,COc1ccccc1-c1cc2cnc(NC3CCN(S(C)(=O)=O)CC3)nc2n(C)c1=O.Cl,202.7 to 204.3

row,SMILES,melting point [°C]
1,Cl.Cn1c(=O)c(-c2ccccc2Cl)cc2cnc(NC3CCC4(CC3)OCC(C)(CO)CO4)nc21 (stereo not shown),180.3 to 181.2
2,O=C1c2ccccc2C(=O)N1CCn1c(=O)c(-c2ccccc2Cl)cc2cnc(N[C@H]3CC[C@H](O)CC3)nc21 (as salt: HCl) [Example 77],208 to 210
3,"O=c1[nH]c2nc(N[C@H]3CC[C@H](O)CC3)ncc2cc1-c1ccccc1Cl (as salt: hydrochloride) [Example 11, 2-(trans-4-hydroxycyclohexylamino)-6-(2-chlorophenyl)-pyrido[2,3-d]pyrimidin-7-ol]",191.1 to 194.3
4,Cl.Cn1c(=O)c(-c2ccccc2Cl)cc2cnc(NC3CCN(CC#N)CC3)nc21,228.3 to 228.9
5,CC(C)S(=O)(=O)N1CCC(Nc2ncc3cc(-c4ccccc4F)c(=O)n(C)c3n2)CC1.Cl,204 to 209
6,CCS(=O)(=O)N1CCC(Nc2ncc3cc(-c4ccccc4C)c(=O)n(C)c3n2)CC1.Cl,218.5 to 219.3
7,Cl.Cn1c(=O)c(-c2ccccc2Cl)cc2cnc(NC3CCN(CCS(C)(=O)=O)CC3)nc21,204.6 to 205.6
8,Cl.O=c1[nH]c2nc(NC3CCOCC3)ncc2cc1-c1ccccc1Cl,> 300
9,CCn1c(=O)c(-c2ccccc2Cl)cc2cnc(NC3CCOCC3)nc21.Cl [Cpd 136],185.3 to 190.1
10,Cc1ccccc1-c1cc2cnc(NC3CCOCC3)nc2n(C)c1=O.Cl,222.9 to 225.9
11,CC(C)CNn1c(=O)c(-c2ccccc2Cl)cc2cnc(NC3CCOCC3)nc21.Cl,111.3 to 117.5
12,Cl.O=C1CCC(Nc2ncc3cc(-c4ccccc4Cl)c(=O)[nH]c3n2)CC1,265.5 to 269.9
13,Cl.Cn1c(=O)c(-c2ccccc2Cl)cc2cnc(NC3CCS(=O)(=O)C3)nc21 (stereo not shown),256 to 260
14,COc1ccccc1-c1cc2cnc(NC3CCN(S(=O)(=O)CC(F)(F)F)CC3)nc2n(C)c1=O.Cl,194.7 to 196
15,Cl.Cn1c(=O)c(-c2ccccc2Cl)cc2cnc(N[C@H]3CCCCNC3=O)nc21,140 to 144
16,CC(=O)OC1CCC(Nc2ncc3cc(-c4ccccc4Cl)c(=O)n(C)c3n2)CC1 (stereo not shown) [Cpd 5],200.9 to 201.2
17,CC(=O)O[C@H]1CC[C@H](Nc2ncc3cc(-c4ccccc4Cl)c(=O)[nH]c3n2)CC1.Cl,> 300
18,CC(C)(C)Cn1c(=O)c(-c2ccccc2Cl)cc2cnc(NC3CCS(=O)(=O)CC3)nc21.Cl,223.7 to 230.2
